Test results from patent US10960005B2, “Treatment of relapsed and/or refractory solid tumors and non-hodgkin's lymphomas” (CELGENE QUANTICEL RESEARCH, INC., priority 2016, dated 2021).
Where two headings read alike, the source gives them in different places.

Columns and labels:
MKL-1 hMCC cells = experiment: hMCC cell proliferation inhibition (2D, CellTiter-Glo), MKL-1; type: cell-based, human; conditions: MKL-1, 2D format, 7 days
Experimental: MKL-1 hMCC cells were cultured in vitro in RPMI-1640 culture medium (Life Technologies, Carlsbad, Calif.) containing 100 units/mL penicdlin G sodium and 100 μg/mL streptomycin sulfate (cRPMI) supplemented with 10% fetal bovine serum (FBS). MS-1 hMCC cells were cultured in vitro in cRPMI supplemented with 20% FBS.
Four to six replicates were performed at each concentration.

[1] = tested on: gene expression (ST18, FREM2) in MKL-1 cells; experiment: Gene expression modulation (RNA-seq, qRT-PCR) in cultured MKL-1 cells; type: cell-based, human; conditions: 10 and 100 nM, three days
Experimental: 22, 66, or 200 nM for qRT-PCR analysis.
Libraries were sequenced on an Illumina NextSeq® 500 System (Illumina, San Diego, Calif.) using 75 base paired-end RNA sequencing. Sequenced reads were mapped to the hg19 human genome build and differential expression was determined by analysis of variance across all replicates relative to the vehicle control
Sequenced reads were mapped to the hg19 human genome build using the Spliced Transcripts Alignment to a Reference (STAR) software tool (©Alexander Dobin, 2009-2016) and transcript counts were normalized using the Empirical Analysis of Digital Gene Expression Data in R (edgeR) and Differential gene expression analysis based on the negative binomial distribution (DESeq2) software tools (©Bioconductor, 2003-2017). Differential expression was determined by analysis of variance across all replicates relative to the vehicle control.

[2] = tested on: ST18 and FREM2 expression in MKL-1 tumors; experiment: In vivo xenograft dose-response of PD biomarker gene expression, MKL-1; set-up: species or system mice; conditions: 1, 2.5, or 5 mg/kg PO BID ×4.5; tumors 4 h after last dose
Text: (§1) Female NSG mice bearing palpable hMCC MKL-1 and MS-1 tumors were randomized into four groups of three mice each. […] The fourth group was orally administered vehicle as a control on the BID schedule. Four hours after the last dosing, tumors were collected into RNA later and stored frozen.
(§2) Total RNA was eluted in RNase-free water and analyzed by qRT-PCR.

[3] = tested on: ST18 and FREM2 expression in MS-1 tumors; experiment: In vivo xenograft dose-response of PD biomarker gene expression, MS-1; set-up: species or system mice; conditions: 1, 2.5, or 5 mg/kg PO BID ×4.5; tumors 4 h after last dose
Text: as §1, §2

[4] = tested on: H3K4me2 at ST18 and FREM2 gene loci in MKL-1 cells; experiment: ChIP-seq LSD1 occupancy and H3K4me2 status, MKL-1; type: cell-based, human; conditions: 100 nM, 3 days
NCI-H1417 SCLC xenograft = type: in vivo
[5] = Hemodynamic and ECG parameters in anesthetized guinea pigs (IV infusion); conditions: for mean plasma concentration at end of infusion: 10 minutes
Experimental: The effects of Compound Aon hemodynamic and ECG parameters were examined in anesthetized, male Dunkin Hartley guinea pigs. […] An escalating dose design was utilized in which doses were administered sequentially at 20-minute intervals. Animals were monitored throughout the experiment.

[6] = Pharmacokinetics after single IV and oral dose, Sprague Dawley rats; type: in vivo; conditions: Rat, female
Experimental: AUClast=area under the plasma concentration-time curve from time zero to time of last measurable concentration; Cmax=maximum plasma concentration; F=oral bioavailability; hr=hour, PK=pharmacokinetic; SD=standard deviation; t1/2 z=apparent half-life of the terminal phase of the concentration-time curve; tmax=time of Cmax. In mouse, PK parameters were determined using composite plasma samples obtained from n=3animals/time point. In other species, PK parameters are from n=3 animals and values shown are mean and SD (in parentheses).

[7] = Excretion in bile duct cannulated rats (IV); type: in vivo; conditions: 24-hour period post dosing
[8] = tested on: LXFS 615 SCLC patient-derived xenograft; conditions: 5 mg base/kg; plasma after final dose
[9] = tested on: LXFS 1129 SCLC patient-derived xenograft
[10] = QW 1.25 mg oral dose, 60-kg human, 80% oral bioavailability assumed
[11] = 4-week oral gavage toxicity study with 4-week recovery in dogs (QW/BIW); conditions: for mean AUC0-168 / mean Cmax: 0.375 mg base/kg/dose QW; for Steady state Cmax: 0.75 mg base/kg/dose QW
[12] = Compound A monotherapy 5 mg/kg PO 5 on/2 off
[13] = etoposide 24 mg/kg SC QD×3 followed by Compound A 5 mg/kg PO 5 on/2 off
[14] = after escalating IV doses to 20 mg base/kg
[15] = 0.375 mg base/kg/dose BIW, males, Day 22
[16] = Dogs, Day 1, 0.75 mg base/kg/dose oral once weekly, M
[17] = Dogs, Day 1, 1.5 mg base/kg/dose oral once weekly, F
[18] = Dogs, Day 1, 1.5 mg base/kg/dose oral once weekly, M
[19] = Dogs, Day 22, 0.375 mg base/kg/dose oral once weekly, F
[20] = Dogs, Day 22, 0.375 mg base/kg/dose oral once weekly, M
[21] = Dogs, Day 22, 0.375 mg base/kg/dose oral twice weekly, M
[22] = Dogs, Day 22, 0.75 mg base/kg/dose oral once weekly, F
[23] = Dogs, Day 22, 0.75 mg base/kg/dose oral once weekly, M
[24] = QW or BIW schedule, not determined

COc1ccc(-c2c(-c3ccc(C#N)c(F)c3)nc(N3CCC(N)CC3)n(C)c2=O)cc1F [Compound A]
IC50 (MKL-1 hMCC cells): 18.4 nM | ST18 and FREM2 gene expression changes (upregulated) [1]: at least 2 fold | ST18 and FREM2 change in gene expression in vivo [2]: ≥ 2 fold | ST18 and FREM2 change in gene expression in vivo [3]: ≥ 2 fold | H3K4me2 at the LSD1 binding site of FREM2 gene [4]: increased H3K4me2 | H3K4me2 at the LSD1 binding site of ST18 gene [4]: increased H3K4me2 | % TGD (NCI-H1417 SCLC xenograft; [12]): 335% | TGD (NCI-H1417 SCLC xenograft; [12]): 87 days | median TTE (NCI-H1417 SCLC xenograft; [12]): 113 days | % TGD (NCI-H1417 SCLC xenograft; [13]): 435% | TGD (NCI-H1417 SCLC xenograft; [13]): 113 days | median TTE (NCI-H1417 SCLC xenograft; [13]): 139 days | mean plasma concentration at end of infusion ([5]; 15 mg base/kg IV): 4269 ng/mL | mean plasma concentration at end of infusion ([5]; 20 mg base/kg IV): 6707 ng/mL | maximum decrease in HR vs vehicle ([5]; 20 mg base/kg IV, 9 minutes into 10-minute infusion): 19% | decrease in heart rate at end of monitoring period [5, 14]: 18% | increase of QTcB interval at end of monitoring period [5, 14]: 10% | AUC∞ ([6]; single IV 5 mg base/kg): 733 ng·h/mL | CL ([6]; single IV 5 mg base/kg): 115 mL/min/kg | Vss ([6]; single IV 5 mg base/kg): 0.2625 L/kg | t1/2,z ([6]; single IV 5 mg base/kg): 3.6 h | % F ([6]; single oral 5 mg base/kg): 33% | AUClast ([6]; single oral 5 mg base/kg): 222 ng·h/mL | Cmax ([6]; single oral 5 mg base/kg): 47 ng/mL | t1/2,z ([6]; single oral 5 mg base/kg): 3.0 h | tmax ([6]; single oral 5 mg base/kg): 2.0 h | % F ([6]; single oral 15 mg base/kg): 28% | AUClast ([6]; single oral 15 mg base/kg): 570 ng·h/mL | Cmax ([6]; single oral 15 mg base/kg): 123 ng/mL | t1/2,z ([6]; single oral 15 mg base/kg): 2.9 h | tmax ([6]; single oral 15 mg base/kg): 2.0 h | % F ([6]; single oral 50 mg base/kg): 74% | AUClast ([6]; single oral 50 mg base/kg): 4652 ng·h/mL | Cmax ([6]; single oral 50 mg base/kg): 621 ng/mL | t1/2,z ([6]; single oral 50 mg base/kg): 3.0 h | tmax ([6]; single oral 50 mg base/kg): 6.0 h | dose excreted intact in urine [7]: 8.5 % of dose | AUC0-24 [8]: 1,617 ng·hr/mL | AUC0-24 ([9]; 1.5 mg base/kg): 243 ng·h/mL | AUC0-24 ([9]; 5 mg base/kg): 1,262 ng·hr/mL | mean body weight losses ([9]; mouse, in vivo): < 6% | predicted steady state systemic exposure (AUCt) [10]: 29 ng·h/mL | Cmax ([11]; 0.375 mg base/kg/dose BIW, females, Day 22): 19.0 ng/mL | Cmax [11, 15]: 17.7 ng/mL | mean AUC0-72 [11, 15]: 307 ng·h/mL | mean AUC0-168 ([11]; females, Day 22): 269 ng·h/mL | mean Cmax ([11]; females, Day 22): 15.5 ng/mL | mean AUC0-168 ([11]; males, Day 22): 384 ng·h/mL | mean Cmax ([11]; males, Day 22): 21.9 ng/mL | Steady state Cmax ([11]; females): 40.8 ng/mL | Steady state Cmax ([11]; males): 36.2 ng/mL | AUC0-168 ([11]; Dogs, Day 1, 0.375 mg base/kg/dose oral once weekly, M): 503 ng·h/mL | AUC0-72 ([11]; Dogs, Day 1, 0.375 mg base/kg/dose oral twice weekly, M): 420 ng·h/mL | AUC0-168 ([11]; Dogs, Day 1, 0.75 mg base/kg/dose oral once weekly, F): 1180 ng·h/mL | AUC0-168 [11, 16]: 955 ng·h/mL | Cmax [11, 16]: 34 ng/mL | AUC0-168 [11, 17]: 2680 ng·h/mL | Cmax [11, 17]: 80.0 ng/mL | AUC0-168 [11, 18]: 2530 ng·h/mL | Cmax [11, 18]: 90.6 ng/mL | AUC0-168 [11, 19]: 269 ng·h/mL | Cmax [11, 19]: 15.5 ng/mL | AUC0-168 [11, 20]: 384 ng·h/mL | Cmax [11, 20]: 21.9 ng/mL | Cmax ([11]; Dogs, Day 22, 0.375 mg base/kg/dose oral twice weekly, F): 19.0 ng/mL | AUC0-72 [11, 21]: 307 ng·h/mL | Cmax [11, 21]: 17.7 ng/mL | AUC0-168 [11, 22]: 719 ng·h/mL | Cmax [11, 22]: 40.8 ng/mL | AUC0-168 [11, 23]: 645 ng·h/mL | Cmax [11, 23]: 36.2 ng/mL | HNSTD [11, 24]: < 0.375 mg base/kg/dose | NOAEL [11, 24]: < 0.375 mg base/kg/dose | moribund euthanasia ([11]; weekly oral 0.375-1.5 mg base/kg/dose, between study Days 13 and 23): 11 animals | primary toxicities ([11]; ≥0.375 mg base/kg/dose, QW or BIW): mucosal ulceration, acute and/or subacute inflammation, and mucosal epithelial atrophy ofGI tract tissues
